Results taken from patent publication US20110190215A1, “THERAPEUTIC USE OF PEPTIDES” (priority 2008, published 2011).
“Also recorded” adds a separate entry of the source. Where no end group is shown, it is not given here.

Columns and labels:
[1] = tested on: Renin (angiotensinogenase); assay: Microarray gene expression in peptide-treated TR146 cells: renin; type: cell-based; details: TR146 buccal mucosal cells, 2.0 μM peptide, 6 hours, vs mock-treated, Affymetrix Human Genome Focus Array
Method: (§1) TR146 buccal mucosal cells, obtained from Cancer Research U.K., were propagated in Dulbecco's modified Eagle medium (DMEM) high glucose (Gibco). The culture medium supplemented with 3.7 mg/ml NaHCO3, 10% FCS, 50 units/ml penicillin G, and […] streptomycin sulphate. Cells were passaged when 90% confluence was reached. The medium was discarded, and cells were washed twice with sterile DPBS (without calcium and magnesium, Cellgro) and 0.25% trypsin-EDTA solution (Gibco) was added. The flask was placed at 37° C. for 10 minutes and then detached cells were suspended in growth medium and seeded in new flasks (dishes micro-well plates).
(§2) For microarray analysis, cells at 75-80% confluence in T75 flasks were treated with equimolar (2.0 μM) concentrations of peptides. Mock-treated cells received same volume of solvent. After 6 hours the cells were washed twice with DPBS, trypsinized, suspended in 5 ml growth media and centrifuged (800 g for 10 minutes). Cells were resuspended in 5 ml DPBS and centrifuged again. Cell pellets were used for RNA isolation.
(§3) Total RNAs were isolated with an Ambion RNAqueous Kit, and cDNAs were synthesized and purified for Affymetrix GeneChip® Human Genome Focus Array analysis. Raw data were analyzed by the Affymetrix NetAFFX Analysis Center online tools.
(§4) The nature of change of gene expression profile in response to the peptide was determined. […]

[2] = tested on: leptin; assay: Proteomic microarray (antibody membrane, chemiluminescence): leptin protein expression in TR146 cells; type: cell-based; details: TR146 buccal mucosal cells, 2.0 μM peptide, 24 hours, vs mock-treated
Method: as §1
For proteomic microarray analysis, cells at 75-80% confluence in T75 flasks were treated with equimolar (2.0 μM) concentrations of a peptide consisting of the sequence FVAPFPEVFGKEKV (SEQ ID NO 2), […] (SEQ ID NO 3), GPVRGPFPI (SEQ ID NO 4), EPVLGPVRGPFPI (SEQ ID NO 5), VPYPQRDMPIQ (SEQ ID NO 6), […] (SEQ ID NO 7), EPVLGPVR (SEQ ID NO 8) and […] (SEQ ID NO 1). Mock-treated cells received same volume of solvent. After 24 hours the cells were washed twice with DPBS, trypsinized, suspended in 5 ml growth media and centrifuged (800 g for 10 minutes). Cells were resuspended in 5 ml DPBS and centrifuged again.
Antibodies specific to leptin were immobilised on the surface of a membrane. Sample extracts of cell samples each treated with peptides of amino acid sequences SEQ ID NO 1, 2, 3, 4, 5, 6, 7 and 8 were incubated with the membranes. Biotinylated antibodies, specific to leptin-antibody complexes, were then incubated with the membranes. Bound leptin was quantified by measuring chemiluminescence.

[3] = tested on: Resistin; assay: Microarray gene expression in peptide-treated TR146 cells: resistin; type: cell-based; details: TR146 buccal mucosal cells, 2.0 μM peptide, 6 hours, vs mock-treated, Affymetrix Human Genome Focus Array
Method: as §1, §2, §3, §4

[4] = Body weight of mice on high-fat diet (HFD) co-administered peptides; type: in vivo; details: for body weight gain compared to control fed with HFD alone: peptide co-administered with HFD for 10 months; for body weight: peptide co-administered with high-fat diet (HFD) for 10 months, HFD control 54.7 g, regular diet 29.8 g
[5] = tested on: Apolipoprotein E (APOE) and receptors; assay: Microarray gene expression in peptide-treated TR146 cells: APOE and receptors; type: cell-based; details: TR146 buccal mucosal cells, 2.0 μM peptide, 6 hours, vs mock-treated, Affymetrix Human Genome Focus Array
Method: as §1
(§5) For microarray analysis, cells at 75-80% confluence in T75 flasks were treated with equimolar (2.0 μM) concentrations of a peptide consisting of the sequence […] (SEQ ID NO 1). […]
as §3
(§6) The nature of change of gene expression profile in response to the peptide consisting of the sequence […] (SEQ ID NO 1) was determined. […]
(§7) The nature of change of gene expression profile in response to each of the peptides consisting of the sequence RMPLPPRGCPAAAPWS (SEQ ID NO 10) or […] (SEQ ID NO 1) was determined. […]

[6] = tested on: glutamate receptor, metabotropic 7; assay: Microarray gene expression in peptide-treated TR146 cells: metabotropic glutamate receptor 7; type: cell-based; details: TR146 buccal mucosal cells, 2.0 μM peptide, 6 hours, vs mock-treated, Affymetrix Human Genome Focus Array
Method: as §1, §5, §3, §6, §7

[7] = tested on: glutamate receptor, ionotropic, N-methyl D-aspartate 2A; assay: Microarray gene expression in peptide-treated TR146 cells: NMDA 2A glutamate receptor; type: cell-based; details: TR146 buccal mucosal cells, 2.0 μM peptide, 6 hours, vs mock-treated, Affymetrix Human Genome Focus Array
Method: as §1, §5, §3, §6, §7

[8] = tested on: Bleomycin hydrolase; assay: Microarray gene expression in peptide-treated TR146 cells: bleomycin hydrolase; type: cell-based; details: TR146 buccal mucosal cells, 2.0 μM peptide, 6 hours, vs mock-treated, Affymetrix Human Genome Focus Array
Method: as §1, §5, §3, §6, §7

[9] = tested on: TR146 buccal mucosal cells; assay: Microarray gene expression profile of peptide-treated TR146 cells (number of genes altered); type: cell-based, human; details: 2.0 μM peptide, 6 hours
Method: as §1
as §2, with “a peptide consisting of the sequence […] (SEQ ID NO 1).” for “peptides.”
as §3
The nature of change of gene expression profile in response to the peptide consisting of the sequence […] (SEQ ID NO 1) was determined. Four result files were generated: 1. Molecular networks; 2. Biological functions and diseases; 3. Metabolic-, signalling-, and other molecular pathways; 4. Network node molecule lists. Fischer's exact test was used to calculate a p-value determining the probability that each biological function and/or disease assigned to that data set is due to chance alone.

[10] = tested on: brain glutamate decarboxylase 2; assay: Microarray gene expression in peptide-treated TR146 cells: brain glutamate decarboxylase 2; type: cell-based; details: TR146 buccal mucosal cells, 2.0 μM peptide, 6 hours, vs mock-treated, Affymetrix Human Genome Focus Array
Method: as §1, §5, §3, §6, §7

[11] = tested on: glutamate receptor, metabotropic 8; assay: Microarray gene expression in peptide-treated TR146 cells: metabotropic glutamate receptor 8; type: cell-based; details: TR146 buccal mucosal cells, 2.0 μM peptide, 6 hours, vs mock-treated, Affymetrix Human Genome Focus Array
Method: as §1, §5, §3, §6, §7

[12] = tested on: Stathmin-1; assay: Microarray gene expression in peptide-treated TR146 cells: Stathmin-1; type: cell-based; details: TR146 buccal mucosal cells, 2.0 μM peptide, 6 hours, vs mock-treated, Affymetrix Human Genome Focus Array
Method: as §1
(§8) For microarray analysis, cells at 75-80% confluence in T75 flasks were treated with equimolar (2.0 μM) concentrations of a peptide consisting of the sequence RMPLPPRGCPAAAPWS (SEQ ID NO 10) or […] (SEQ ID NO 1). Mock-treated cells received same volume of solvent. […]
as §3, §7

[13] = tested on: Amyloid Beta (A4) Precursor Protein (APP); assay: Microarray gene expression in peptide-treated TR146 cells: APP; type: cell-based; details: TR146 buccal mucosal cells, 2.0 μM peptide, 6 hours, vs mock-treated, Affymetrix Human Genome Focus Array
Method: as §1, §8, §3, §7

[14] = tested on: protein-tyrosine phosphatase, receptor-type, F; assay: Microarray gene expression in peptide-treated TR146 cells: protein-tyrosine phosphatase, receptor-type, F; type: cell-based; details: TR146 buccal mucosal cells, 2.0 μM peptide, 6 hours, vs mock-treated, Affymetrix Human Genome Focus Array
Method: as §1, §8, §3, §7

[15] = tested on: gamma-aminobutyric acid A receptor (GABAAR); assay: Microarray gene expression in peptide-treated TR146 cells: GABA A receptor; type: cell-based; details: TR146 buccal mucosal cells, 2.0 μM peptide, 6 hours, vs mock-treated, Affymetrix Human Genome Focus Array
Method: as §1
as §2, with “peptide of SEQ ID NO 5.” for “peptides.”, “Cell pellets were used for RNA isolation.” left out
(§9) RNA isolation for Microarray Procedure Total RNAs were isolated with an Ambion RNAqueous Kit, and cDNAs were synthesized and purified for Affymetrix GeneChip® Human Genome Focus Array analysis. Raw data were analyzed by the Affymetrix NetAFFX Analysis Center online tools.
as §4

[16] = tested on: beta 2 gamma-aminobutyric acid receptor, theta; assay: Microarray gene expression in peptide-treated TR146 cells: beta 2 GABA receptor, theta; type: cell-based; details: TR146 buccal mucosal cells, 2.0 μM peptide, 6 hours, vs mock-treated, Affymetrix Human Genome Focus Array
Method: as §1
as §2, with “peptide of SEQ ID NO 5.” for “peptides.”, “Cell pellets were used for RNA isolation.” left out
as §9, §4

[17] = tested on: glutamate decarboxylase 2 (pancreatic islets, lung and brain, 65 kDa); assay: Microarray gene expression in peptide-treated TR146 cells: glutamate decarboxylase 2 (65 kDa); type: cell-based; details: TR146 buccal mucosal cells, 2.0 μM peptide, 6 hours, vs mock-treated, Affymetrix Human Genome Focus Array
Method: as §1
as §2, with “peptide of SEQ ID NO 5.” for “peptides.”, “Cell pellets were used for RNA isolation.” left out
as §9, §4

[18] = tested on: rho 2; assay: Microarray gene expression in peptide-treated TR146 cells: rho 2; type: cell-based; details: TR146 buccal mucosal cells, 2.0 μM peptide, 6 hours, vs mock-treated, Affymetrix Human Genome Focus Array
Method: as §1
as §2, with “peptide of SEQ ID NO 5.” for “peptides.”, “Cell pellets were used for RNA isolation.” left out
as §9, §4

## FVAPFPEVFGKEKV (listed as Ovis sp.) [SEQ ID NO 2, peptide homologous with positions 39 to 52 of casein alpha S-1]
[1]
  gene expression of renin (angiotensinogenase): down-regulated
[2]
  protein expression of leptin: upregulated
[3]
  gene expression of resistin: down-regulated
[4]
  body weight gain compared to control fed with HFD alone: lower
  body weight: 52.1 g

## RPKHPIKHQGLPQEVLNENLLRF [SEQ ID NO 1]
[5]
  gene expression of Apolipoprotein E (APOE) and receptors: Downregulation; also recorded: down-regulated
[6]
  gene expression of glutamate receptor, metabotropic 7: Downregulation; also recorded: down-regulated
[2]
  protein expression of leptin: upregulated
[7]
  gene expression of glutamate receptor, ionotropic, N-methyl D-aspartate 2A: Downregulation; also recorded: down-regulated
[8]
  gene expression of bleomycin hydrolase: Upregulation; also recorded: upregulated
[9]
  number of genes down-regulated: 296 genes
  number of genes up-regulated: 101 genes
[9]; total altered
  number of genes with altered expression: ~400 genes
[10]
  gene expression of brain glutamate decarboxylase 2: Downregulation; also recorded: down-regulated
[11]
  gene expression of glutamate receptor, metabotropic 8: Downregulation; also recorded: down-regulated

## VPYPQRDMPIQ (listed as Ovis sp.) [SEQ ID NO 6, peptide homologous with positions 178-188 of casein beta]
[2]
  protein expression of leptin: upregulated

## RMPLPPRGCPAAAPWS (listed as Ovis sp.) [SEQ ID NO 10]
[12]
  gene expression of Stathmin-1: upregulated
[13]
  gene expression of Amyloid Beta (A4) Precursor Protein (APP): downregulated
[14]
  gene expression of protein-tyrosine phosphatase, receptor-type, F: downregulated
[4]
  body weight gain compared to control fed with HFD alone: lower
  body weight: 50.1 g

## SDIPNPIGSENSEKTTMPLW (listed as Ovis sp.) [SEQ ID NO 3, peptide homologous with positions 195-214 of casein alpha S-1]
[2]
  protein expression of leptin: upregulated

## EPVLGPVRGPFPI (listed as Ovis sp.) [SEQ ID NO 5, peptide homologous with positions 195 to 207 of casein beta]
[2]
  protein expression of leptin: upregulated
[15]
  gene expression of gamma-aminobutyric acid A receptor (GABAAR): downregulated
[16]
  gene expression of beta 2 gamma-aminobutyric acid receptor, theta: downregulated
[17]
  gene expression of glutamate decarboxylase 2 (pancreatic islets, lung and brain, 65 kDa): downregulated
[18]
  gene expression of rho 2: downregulated

## EPVLGPVR (listed as Ovis sp.) [SEQ ID NO 8, peptide homologous with positions 195-202 of casein beta]
[2]
  protein expression of leptin: upregulated

## RGPFPIIV (listed as Ovis sp.) [SEQ ID NO 9, peptide said to be homologous with positions 202-209 of casein alpha S-1]
[4]
  body weight gain compared to control fed with HFD alone: lower
  body weight: 51.1 g

## GPVRGPFPI (listed as Ovis sp.) [SEQ ID NO 4, peptide homologous with positions 199-207 of casein beta]
[2]
  protein expression of leptin: upregulated

## SLSQSKVLPVPQKAVPYPQRDMPIQ (listed as Ovis sp.) [SEQ ID NO 7, peptide homologous with positions 164-188 of casein beta]
[2]
  protein expression of leptin: upregulated
